# Measured values reported in US9926276B2, “Substituted benzamides with activity towards EP4 receptors” (DRACONIS PHARMA, S.L., priority 2013, dated 2018).
# Key:
# human EP4 receptor [1] = biological target: T1, human EP4 receptor (Homo sapiens, UniProt P35408); assay: Human EP4 receptor radioligand binding assay (Test 1); set-up: expressed in transfected cells; host or cells: HEK-293 cell membranes; settings: [3H]-PGE2 1 nM, transfected HEK-293 cell membranes; for Results of Test 1 (Binding assay, % inh): at 10 μM; for inhibition at 10 µM: read-out: Results of Test 1 (Binding assay, % inh)
# Method: Test 1: Human EP4 Receptor Radioligand Binding Assay
# To investigate binding properties of EP4 receptor ligands to human EP4 receptor, transfected HEK-293 cell membranes and [3H]-PGE2 (Perkin Elmer) were used. In 96-well plates the assay was carried out with a total reaction volume of 250 μl, containing 25 μl of membrane suspension (30 μg protein/well), 25 μl of [3H]-PGE2 (1 nM) in either absence or presence of 25 μl of either buffer or PGE2 (10 μM) for total and non-specific binding, respectively. Binding buffer contained 25 mM MES, 10 mM MgCl2 and 1 mM EDTA at pH 6.0. Plates were incubated at 25° C. for 120 minutes. After the incubation period, 200 μl of incubate were transferred to MultiScreen HTS, FB plates (Millipore), filtered and plates were washed 6 times with ice-cold 10 mM MES, 0.01% BSA at pH 6.0. Filters were dried and counted in a MicroBeta scintillation counter (Perkin-Elmer) using EcoScint liquid scintillation cocktail.
# Percentage inhibition was calculated relating compounds activity to the 0% inhibition of the wells incubated with 1 nM [3H]-PGE2 alone (total binding) and 100% inhibition of the wells incubated with 1 nM [3H]-PGE2 plus 10 μM PGE2 (non-specific binding).
# human EP4 receptor [2] = biological target: T1, human EP4 receptor; assay: Measurement of cAMP responses by Homogeneous Time Resolved Fluorescence (Test 2); format: cell-based; set-up: expressed in transfected cells; settings: for Results of Test 2 (Functional assay, antagonist % inh): at 10 μM, PGE2 1 nM, HEK-293 cells stably expressing human EP4; for inhibition at 10 µM: HEK293, PGE2 1 nM, HEK-293 cells stably expressing human EP4, read-out: Results of Test 2 (Functional assay, antagonist % inh)
# Method: Test 2: Measurement of cAMP Responses by Homogeneous Time Resolved Fluorescence
# cAMP measurements on HEK-293 cells that stably expressed human EP4 receptors were performed by using a system based on Homogeneous Time Resolved Fluorescense (HTRF). This technology allows the direct measurement of cAMP in living cells. The principle of this assay is based on competition between cAMP produced by cells and cAMP-d2 conjugate for the binding with monoclonal anti-cAMP-cryptate conjugate. The HTRF cAMP kit from CisBio was used according to the manufacturer's directions. The experimental procedure was performed as stated below.
# Suspended cells (30,000 cells per well) were added to 96-well culture plates in 30 μl of Optimem supplemented with 500 μM IBMX. Compounds were then added in 10 μl of stimulation buffer and incubated at 25° C. for 30 minutes followed by 10 μl of PGE2 to a final concentration of 1 nM. After 30 minutes at 25° C., the reaction was stopped lysing the cells with a mixture of 25 μl of cryptate and 25 μl of cAMP-d2 prepared in the lysis buffer supplied by the manufacturer. Plates were incubated for an additional hour at room temperature and read at 665 nm/620 nm using an UltraEvolution Plate reader (Tecan).
# Antagonist percentage inhibition was calculated relating compounds activity to the 0% inhibition of the wells incubated with 1 nM PGE2 alone and 100% inhibition of the wells incubated with 1 nM PGE2 plus 1 μM of the reference antagonist.
# T1 sequence (P35408 whole entry): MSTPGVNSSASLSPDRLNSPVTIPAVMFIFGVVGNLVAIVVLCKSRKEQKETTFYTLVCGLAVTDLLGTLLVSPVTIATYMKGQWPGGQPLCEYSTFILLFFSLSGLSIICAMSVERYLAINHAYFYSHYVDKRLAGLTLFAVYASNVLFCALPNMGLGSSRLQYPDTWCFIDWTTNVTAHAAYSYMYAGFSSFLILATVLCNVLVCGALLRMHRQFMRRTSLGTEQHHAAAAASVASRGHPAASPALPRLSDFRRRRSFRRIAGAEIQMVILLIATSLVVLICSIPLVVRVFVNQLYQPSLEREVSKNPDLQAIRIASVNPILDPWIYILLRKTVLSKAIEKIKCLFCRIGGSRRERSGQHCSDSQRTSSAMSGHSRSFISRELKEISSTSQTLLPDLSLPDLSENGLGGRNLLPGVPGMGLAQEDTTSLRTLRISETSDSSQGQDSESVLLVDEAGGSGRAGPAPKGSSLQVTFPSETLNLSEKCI
SMILES,"Results of Test 1 (Binding assay, % inh) (human EP4 receptor [1])","Results of Test 2 (Functional assay, antagonist % inh) (human EP4 receptor [2])",inhibition at 10 µM (human EP4 receptor [1]),inhibition at 10 µM (human EP4 receptor [2])
"Cc1ccc(-c2cccc(Cl)c2)cc1C(=O)Nc1cc(C(=O)O)ccc1C(C)C [Example 45, 3-(3′-Chloro-4-methylbiphenyl-3-ylcarboxamido)-4-isopropylbenzoic acid]",# (% inh >75),$ (% inh >75),–,–
"CC(C)c1ccc(C(=O)O)cc1NC(=O)c1cc(-c2cccc(Cl)c2)ccc1Cl [Example 46, 3-(3′,4-Dichlorobiphenyl-3-ylcarboxamido)-4-isopropylbenzoic acid]",# (% inh >75),$ (% inh >75),–,–
"O=C(O)c1cc(Cl)c(NC(=O)c2nc(-c3cccc(Cl)c3)ccc2Cl)c(Cl)c1 [Example 47, 3,5-Dichloro-4-(3-chloro-6-(3-chlorophenyl)picolinamido)benzoic acid]",–,–,> 75%,> 75%
"Cc1cc(C(=O)O)cc(Cl)c1NC(=O)c1nc(-c2cccc(Cl)c2)ccc1Cl [Example 48, 3-Chloro-4-(3-chloro-6-(3-chlorophenyl)-picolinamido)-5-methylbenzoic acid]",–,–,> 75%,> 75%
"O=C(O)c1cc(Cl)c(NC(=O)c2nc(N3CCCCC3)ccc2Cl)c(Cl)c1 [Example 57, 3,5-Dichloro-4-(3-chloro-6-(piperidin-1-yl)picolinamido)benzoic acid]",–,–,> 75%,> 75%
"Cc1ccc(-c2cccc(C(F)(F)F)c2)cc1C(=O)Nc1c(C)cc(C(=O)[O-])cc1C.[Na+] [Example 58, Sodium 3,5-dimethyl-4-(4-methyl-3′-(trifluoromethyl)biphenyl-3-ylcarboxamido)benzoate]",# (% inh >75),$ (% inh >75),–,–
"COc1cc(Cl)cc(-c2ccc(C)c(C(=O)Nc3c(C)cc(C(=O)O)cc3C)c2)c1 [Example 59, 4-(3′-Chloro-5′-methoxy-4-methylbiphenyl-3-ylcarboxamido)-3,5-dimethylbenzoic acid]",# (% inh >75),$ (% inh >75),–,–
"O=C(O)c1cc(Cl)c(NC(=O)c2cc(-c3nccc(C(F)(F)F)n3)ccc2Cl)c(Cl)c1 [Example 60, Sodium 3,5-dichloro-4-(2-chloro-5-(4-(trifluoromethyl)pyrimidin-2-yl)benzamido)benzoate]",–,–,> 75%,> 75%
